Test results from patent US9526785B2, “Pharmaceuticals for oral delivery” (Enteris BioPharma, Inc., priority 2013, dated 2016).
Several values for one entry are separate records, joined by “and”; a condition that tells them apart may be missing. Identical values can stand only once. Entries after “also recorded” stand apart in the source; their conditions may differ. Like-named read-outs stand apart in the source and are kept apart here.

Assay: Tigecycline plasma PK and % F after PO enteric-coated capsule in dogs
Format: in vivo, Beagle dogs
Settings: for bioavailability / AUC(0-t) / Cmax / Tmax / concentration at 0 min / concentration at 15 min / concentration at 30 min / concentration at 45 min: female, beagle, dog, plasma, po, 15 mg; for Tmax: read-out: Tmax (converted); for concentration at 0 min / concentration at 15 min / concentration at 30 min / concentration at 45 min: Tigecycline Plasma Concentration
Procedure: Adult beagle dogs weighing approximately 9 to 15 kg were used in the study. […] Room temperature was set to be maintained between approximately 20±5° C. Relative humidity was monitored but not controlled.
TEKLAD™ Certified Canine Diet was provided once daily in amounts (˜400 grams) appropriate for the size and age of the animals. Tap water was available ad libitum via automatic watering device or water bowls.
Oral dosing of enteric-coated capsules was accomplished by administering them to the back of the dog's mouth, followed by a chase of 5 mL water to ensure swallowing.
Water was provided ad libitum. […] Subsequently, each group of animals was dosed based on the protocol, i.e. either IV, or PO by capsule.
Minocycline (VWR international) was used as an internal standard. Sample processing/clean-up of plasma samples was carried out offline by protein precipitation with acidified acetonitrile using 0.5% trifluoroacetic acid (TFA).
The HPLC system consisted of Shimadzu SIL-HTc HPLC system equipped with dual Shimadzu LC-10ADvp isopumps, a Shimadzu CTO-10ASvp column temperature controller and a Shimadzu SPD-10Avp variable wavelength detector. […] Mobile phase A consisted of 23 mM phosphate buffer pH 2.5 with 4 mM 1-octanesulfonic acid, while mobile phase B consisting of 90% acetonitrile, 10% water, with 2 mM 1-octanesulfonic acid. […] The total runtime was 18 minutes per sample. The mobile phase flow rate was 1.2 mL/min. Detection was performed using the SPD-10Avp variable wavelength detector set at 350 nm, with a sensitivity of 0.001 aufs.
The samples were then centrifuged under refrigeration at 13 k rpm for 5 minutes. The supernatant was taken and the liquid removed to dryness under nitrogen in a turbovap. The dried extract was reconstituted in 60 μL of mobile phase A and the suspension was further centrifuged at 5 k rpm for 5 minutes to pellet any insoluble matter. The resulting supernatant was then injected onto the LC.
The unknown concentration in dog plasma samples was determined by interpolation of the peak area ratios of analyte:internal standard versus the ratio of their nominal concentrations into the regression line obtained from calibration standards spiked in pooled dog plasma. No regression weighting was used for the calculations. […] The calibration curve covered the range of 0.05 μg/mL to 5 μg/mL. […]
The capsules were enterically coated using a standard preclinical protocol to 10% weight gain. Two studies were conducted.

[1] = 15 min, PO 15 mg unformulated enteric-coated capsule, SC424, individual dogs
[2] = 30 min, PO 15 mg unformulated enteric-coated capsule, SC424, individual dogs
[3] = 45 min, PO 15 mg unformulated enteric-coated capsule, SC424, individual dogs

Question: Which results are given for `CN(C)c1cc(NC(=O)CNC(C)(C)C)c(O)c2c1C[C@H]1C[C@H]3[C@H](N(C)C)C(O)=C(C(N)=O)C(=O)[C@@]3(O)C(O)=C1C2=O` [Tigecycline]?
Answer: Tigecycline Plasma Concentration [1]: 0.00 ng/mL; Tigecycline Plasma Concentration [2]: 0.00 ng/mL; Tigecycline Plasma Concentration [3]: 0.00 ng/mL; Tigecycline Plasma Concentration (60 min, PO 15 mg unformulated enteric-coated capsule, SC424, individual dogs): 0.00 ng/mL; Tigecycline Plasma Concentration (75 min, PO 15 mg unformulated enteric-coated capsule, SC424, individual dogs): 0.00 ng/mL; Tigecycline Plasma Concentration (90 min, PO 15 mg unformulated enteric-coated capsule, SC424, individual dogs): 0.00 ng/mL; Tigecycline Plasma Concentration (120 min, PO 15 mg unformulated enteric-coated capsule, SC424, individual dogs): 0.00 ng/mL; Tigecycline Plasma Concentration (150 min, PO 15 mg unformulated enteric-coated capsule, SC424, individual dogs): 0.00 ng/mL; % F (PO 15 mg enteric-coated capsule with 500 mg CA and 100 mg LLC, SC424, calculated from IV data of SC427, individual dogs): 13.6% and 3.9% and 30.3% and 17.0% and 2.0% and 8.3% and 12.0% and 10.6%; plasma exposure (PO 15 mg unformulated (microcrystalline cellulose filler) enteric-coated capsule (SC424)): No tigecycline exposure was observed; also recorded: did not result in observable plasma exposure; % F (PO 30 mg enteric-coated capsule with 500 mg CA and 100 mg LLC, SC430, calculated from IV PK data of SC431, individual dogs): 7.9% and 23.3% and 12.8% and 2.6%; plasma exposure (PO 30 mg unformulated (microcrystalline cellulose filler) enteric-coated capsule (SC430)): No tigecycline exposure was observed; also recorded: did not result in observable plasma exposure; % F (PO 45 mg enteric-coated capsule with 500 mg CA and 100 mg LLC, SC430, calculated from IV PK data of SC431, individual dogs): 18.4% and 6.3% and 6.4% and 14.8% and 31.8%; bioavailability (15 mg Formulated (500 mg CA, 100 mg LLC) enteric coated capsule, Study 1 (SC424), mean (% CV), read-out: % F): 12.2%; AUC(0-t) (15 mg Formulated (500 mg CA, 100 mg LLC) enteric coated capsule, Study 1 (SC424), mean (% CV), read-out: AUC(0-t)): 133 ng·h/mL; Cmax (15 mg Formulated (500 mg CA, 100 mg LLC) enteric coated capsule, Study 1 (SC424), mean (% CV), read-out: Cmax): 75.5 ng/mL; Tmax (15 mg Formulated (500 mg CA, 100 mg LLC) enteric coated capsule, Study 1 (SC424), mean (% CV)): 1.85 h; bioavailability (15 mg Unformulated enteric coated capsule, Study 1 (SC424), read-out: % F): 0%; AUC(0-t) (PO 15 mg ([…]) enteric-coated capsule with 500 mg CA and 100 mg LLC (SC424), read-out: AUC(0-t), mean): 133 ng·h/mL; Cmax (PO 15 mg ([…]) enteric-coated capsule with 500 mg CA and 100 mg LLC (SC424), read-out: Cmax, mean): 75.5 ng/mL; bioavailability (PO 15 mg ([…]) enteric-coated capsule with 500 mg CA and 100 mg LLC (SC424), read-out: absolute % F, mean): 12.2%; bioavailability (PO 15 mg enteric-coated capsule with 500 mg CA and 100 mg LLC (SC424), read-out: % F, range of individual dogs): 2 to 30%; AUC(0-t) (PO 15 mg enteric-coated capsule with 500 mg CA and 100 mg LLC ([…]), SC424, mean, read-out: AUC(0-t)): 133 ng·h/mL; Cmax (PO 15 mg enteric-coated capsule with 500 mg CA and 100 mg LLC ([…]), SC424, mean, read-out: Cmax): 75.5 ng/mL; Tmax (PO 15 mg enteric-coated capsule with 500 mg CA and 100 mg LLC ([…]), SC424, mean): 1.85 h; bioavailability (PO 15 mg enteric-coated capsule with 500 mg CA and 100 mg LLC, SC424, calculated from IV data of SC427, mean, read-out: % F): 12.2%; bioavailability (PO 15 mg unformulated enteric-coated capsule ([…]), SC424, individual dogs, read-out: % F): 0%; bioavailability (PO 15 mg unformulated enteric-coated capsule ([…]), SC424, mean, read-out: % F): 0%; bioavailability (Study 1 (SC424), 15 mg Formulated enteric coated capsule (500 mg citric acid, 100 mg LLC), oral, dogs, N=8, mean (% CV), based on that study's IV arm, read-out: % F): 12.2%; Tmax (Study 1 (SC424), 15 mg Formulated enteric coated capsule (500 mg citric acid, 100 mg LLC), oral, dogs, N=8, mean (% CV)): 1.85 h; AUC(0-t) (Study 1 (SC424), 15 mg Formulated enteric coated capsule (500 mg citric acid, 100 mg LLC), oral, dogs, N=8, mean (% CV), sampling 4 h, read-out: AUC(0-t)): 133 ng·h/mL; Cmax (Study 1 (SC424), 15 mg Formulated enteric coated capsule (500 mg citric acid, 100 mg LLC), oral, dogs, N=8, mean (% CV), sampling 4 h, read-out: Cmax): 75.5 ng/mL; bioavailability (Study 1 (SC424), 15 mg Unformulated enteric coated capsule (microcrystalline cellulose filler), oral, dogs, N=8, based on that study's IV arm, read-out: % F): 0%; concentration at 0 min (PO 15 mg enteric-coated capsule with 500 mg CA and 100 mg LLC, SC424, individual dogs): 0 ng/mL; concentration at 0 min (PO 15 mg enteric-coated capsule with 500 mg CA and 100 mg LLC, SC424, mean): 0 ng/mL; concentration at 15 min (15 min, PO 15 mg enteric-coated capsule with 500 mg CA and 100 mg LLC, SC424, individual dogs): 0 ng/mL; concentration at 15 min (15 min, PO 15 mg enteric-coated capsule with 500 mg CA and 100 mg LLC, SC424, mean): 0 ng/mL; concentration at 15 min [1]: 0 ng/mL; concentration at 15 min (15 min, PO 15 mg unformulated enteric-coated capsule, SC424, mean): 0 ng/mL; concentration at 30 min (30 min, PO 15 mg enteric-coated capsule with 500 mg CA and 100 mg LLC, SC424, individual dogs): 0 ng/mL; concentration at 30 min (30 min, PO 15 mg enteric-coated capsule with 500 mg CA and 100 mg LLC, SC424, mean): 0 ng/mL; concentration at 30 min [2]: 0 ng/mL; concentration at 30 min (30 min, PO 15 mg unformulated enteric-coated capsule, SC424, mean): 0 ng/mL; concentration at 45 min (45 min, PO 15 mg enteric-coated capsule with 500 mg CA and 100 mg LLC, SC424, mean): 8.45 ng/mL; concentration at 45 min [3]: 0 ng/mL; concentration at 45 min (45 min, PO 15 mg unformulated enteric-coated capsule, SC424, mean): 0 ng/mL
